Laboratory results: patent US10640533B2, “Epoxyketone compounds for enzyme inhibition” (CENTRAX INTERNATIONAL, INC., priority 2014, dated 2020)
≈ marks a conversion by molar mass, not a printed value. Like-named read-outs stand apart in the source and are kept apart here.

Experiments:
[1] = Aqueous solubility of the compounds; assay type: physicochemical; settings: 50 mM citrate buffer, pH 4, aqueous buffer, thermodynamic from solid, 50 mM citrate pH4.0, 25° C.
Protocol: To determine the solubility of the compounds, 1-5 mg of a compound was weighed into a vial. 1 mL of aqueous buffer (50 mM citrate at pH4.0) was added. The vial was shaken at 25° C. for 24 hours and then centrifuged for 10 min at 10000 rpm. The supernatant was filtered through a 0.45 μm membrane filter and analyzed for the concentration of the compound. In certain embodiments, the aqueous solubility of the compounds is described herein in Table 1.

[2] = target: Constitutive 20S proteasome chymotrypsin-like (CT-L) activity (Homo sapiens (Human), UniProt P20618+P28074); test: Constitutive 20S proteasome CT-L activity inhibition, fluorogenic substrate succinyl-Leu-Leu-Val-Tyr-AMC; assay type: biochemical
Protocol: (§1) Inhibition of the 20S proteasome can be determined by methods and assays known in the art, for example, as disclosed by Stein et al., Biochemistry (1996), 35, 3899-3908; by Lightcap et al., Clinical Chemistry, 2000, 46, 673-683; by Kisselev et al., Journal of Biological Chemistry. (2006), 281, 8582-8590 and in U.S. application Ser. No. 09/569,748. The chymotrypsin-like (CT-L), peptidylglutamyl peptide hydrolyzing (PGPH) and trypsin-like (T-L) activities of the 20S proteasome are measured with a fluorogenic substrate assay method using succinyl-Leu-Leu-Val-Tyr-AMC, Z-Leu-Leu-Glu-AMC and Boc-Leu-Arg-Arg-AMC, respectively, as the substrates in an assay buffer. The free fluorophore 7-Amino-4-methylcoumarin (AMC) after cleavage from the substrates is quantified using a fluorometer and activity of CT-L, PGPH and T-L of 20S proteasome is determined.
(§2) Inhibition of the chymotrypsin-like (CT-L), peptidylglutamyl peptide hydrolyzing activity (PGPH), and trypsin-like (T-L) activities of the 20S proteasome in enzymatic assays were determined using succinyl-Leu-Leu-Val-Tyr-AMC (10 μmol/L), Z-Leu-Leu-Glu-AMC (10 μmol/L) and Boc-Leu-Arg-Arg-AMC (50 μmol/L), respectively, as the substrates with purified human 20S proteasome at 2, 4 and 8 nmol/L, respectively, in the assay buffer containing 25 mM HEPES (pH7.5), 0.5 mM EDTA, 0.002% sodium dodecyl sulfate (SDS) and 0.05% NP-40. Stock solutions of the 20S proteasome inhibitors disclosed herein were prepared in dimethyl sulfoxide (DMSO) and the final DMSO concentration in the assay mixture was 1%. Reaction was conducted at room temperature for one hour. Proteasome activity was measured based on detection of the fluorophore 7-Amino-4-methylcoumarin (AMC) after cleavage from the substrates with a plate-based spectrofluorometer.

[3] = tested on: CT-L activity of the 20S proteasome in blood samples; test: Inhibition of proteasome CT-L activity in blood samples from dosed Balb/c mice; assay type: in vivo; settings: one hour after dosing, vs vehicle
Protocol: (§3) The proteasome activity in the blood samples collected from mice administrated of the vehicle was considered as 100% (control group). The remaining activity was calculated by comparing the proteasome activity in the blood samples collected from mice administrated of a compound described herein via intravenous injection (IV) at 10 mg/kg or via oral gavage (PO) at 30 mg/kg to the control group.
(§4) Balb/c mice were administered of either a vehicle (20% (w/v) hydroxypropyl-β-cyclodextrin in 10 mM sodium citrate at pH3.5), or a compound described herein at a tolerated dose via intravenous injection at 10 mg/kg or oral gavage at 30 mg/kg. One hour after dosing, whole blood samples were collected into tubes containing sodium heparin by cardiac puncture and centrifuged at 150×g for 5 minutes at 4° C. The resulting pellet was washed using ice-cold phosphate buffered saline (PBS) three times. […] The concentration of the blood lysate was measured by BCA method. […] The free AMC fluorescence was quantified using a 360/460 nm filter set in a fluorometer to measure the CT-L, PGPH or T-L activities of the 20S proteasome. Percent inhibition of the proteasome activity was calculated by comparing the samples collected from the mice administrated of a compound described herein to the samples collected from the mice administrated of the vehicle. […]

[4] = target: Constitutive 20S proteasome peptidylglutamyl peptide hydrolyzing (PGPH) activity (Homo sapiens (Human), UniProt P28072+Q99436); test: Constitutive 20S proteasome PGPH activity inhibition, fluorogenic substrate Z-Leu-Leu-Glu-AMC; assay type: biochemical; settings: purified human 20S proteasome, room temperature, one hour
Protocol: as §1, §2

[5] = target: 20S Immunoproteasome trypsin-like (T-L) activity (Homo sapiens (Human), UniProt P40306+P49720); test: 20S immunoproteasome T-L activity inhibition, fluorogenic substrate Boc-Leu-Arg-Arg-AMC; assay type: biochemical; settings: purified human 20S proteasome, room temperature, one hour
Protocol: as §1, §2

[6] = target: 20S Immunoproteasome peptidylglutamyl peptide hydrolyzing (PGPH) activity (Homo sapiens (Human), UniProt P28065+P40306); test: 20S immunoproteasome PGPH activity inhibition, fluorogenic substrate Z-Leu-Leu-Glu-AMC; assay type: biochemical; settings: purified human 20S proteasome, room temperature, one hour
Protocol: as §1, §2

[7] = target: 20S Immunoproteasome chymotrypsin-like (CT-L) activity (Homo sapiens (Human), UniProt P20618+P28062); test: 20S immunoproteasome CT-L activity inhibition, fluorogenic substrate succinyl-Leu-Leu-Val-Tyr-AMC; assay type: biochemical; settings: purified human 20S proteasome, room temperature, one hour
Protocol: as §1, §2

[8] = target: Constitutive 20S proteasome trypsin-like (T-L) activity (Homo sapiens (Human), UniProt P49720+Q99436); test: Constitutive 20S proteasome T-L activity inhibition, fluorogenic substrate Boc-Leu-Arg-Arg-AMC; assay type: biochemical
Protocol: as §1, §2

[9] = tested on: T-L activity of the 20S proteasome in blood samples; test: Inhibition of proteasome T-L activity in blood samples from dosed Balb/c mice; assay type: in vivo; settings: intravenous 10 mg/kg or oral gavage 30 mg/kg (route not given), one hour after dosing, vs vehicle
Protocol: as §3, §4

[10] = form of 20S proteasome not stated, 'below about'
[11] = purified human 20S proteasome, room temperature, one hour, read-out: Proteasome inhibition IC50 (nM) Constitutive 20S proteasome CT-L
[12] = purified human 20S proteasome, room temperature, one hour, read-out: Proteasome inhibition IC50 (nM) Constitutive 20S proteasome T-L

solubility at 24 h [1] [µg/mL]	IC50 [2, 10] [nM]	IC50 [2, 11] [nM]	IC50 [4] [nM]	IC50 [5] [nM]	IC50 [6] [nM]	IC50 [7] [nM]	IC50 [8, 12] [nM]	IC50 ([8]; form of 20S proteasome not stated, 'below about', read-out: concentration showing inhibition of T-L activity of the 20S proteasome) [nM]	Structure (SMILES)	inhibition of CT-L activity in blood samples ([3]; oral gavage at 30 mg/kg)	inhibition of T-L activity in blood samples [9]	inhibition of CT-L activity in blood samples ([3]; intravenous 10 mg/kg or oral gavage 30 mg/kg (route not given))
520 (≈ 786 µM)	< 50	14.2	> 20000	> 20000	> 20000	11.1	> 20000	–	COC[C@H](NC(=O)[C@H](CCc1ccccc1)NC(=O)c1cc(CN2CCOCC2)on1)C(=O)N[C@@H](Cc1ccccc1)C(=O)[C@@]1(C)CO1 [CX13-603]	inhibited the CT-L activity in blood samples	–	–
1430 (≈ 2090 µM)	< 5	3.73	> 20000	542	> 20000	4.26	490	< 500	COC[C@H](NC(=O)[C@H](CCc1ccccc1)NC(=O)Cc1ccc(CN2CCOCC2)cc1)C(=O)N[C@@H](Cc1ccccc1)C(=O)[C@@]1(C)CO1 [CX13-608]	–	inhibited both CT-L and T-L activity	inhibited both CT-L and T-L activity
